Results as given in the supplement of paper PMC10307832.

How the values were obtained:
Assay in all cases: relative viability (nuclei count vs DMSO), 5 days (fraction); higher = more cells survive
[1] = compound: CCN1C(=O)C2=CC(=C(N=C2N(C1=O)C3CC3)N)C(=O)N + NC(=O)Nc1cc(-c2cccc(F)c2)sc1C(=O)N[C@H]1CCCNC1 [AZD7762] (partner 0.2 µM)
Procedure, shortened: (§1)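 Each reported value is a median over duplicate plates. It expresses relative viability: treated-well nuclei count divided by vehicle-well nuclei count. Lung cancer cell lines in 1536-well plates were dosed by pin tool a day after seeding, alone with one drug or with a fixed anchor-drug dose plus five library-drug doses (not always all listed) in √10 steps, and nuclei were counted after 5 days.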

[2] = compound: CCN1C(=O)C2=CC(=C(N=C2N(C1=O)C3CC3)N)C(=O)N + CC(=O)c1c(C)c2cnc(Nc3ccc(N4CCNCC4)cn3)nc2n(C2CCCC2)c1=O [Palbociclib] (partner 0.5 µM)
Procedure, shortened: as §1

[3] = compound: CCN1C(=O)C2=CC(=C(N=C2N(C1=O)C3CC3)N)C(=O)N + Cc1nc(Nc2ncc(C(=O)Nc3c(C)cccc3Cl)s2)cc(N2CCN(CCO)CC2)n1 [Dasatinib] (partner 0.075 µM)
Procedure, shortened: as §1

[4] = compound: CCN1C(=O)C2=CC(=C(N=C2N(C1=O)C3CC3)N)C(=O)N + CC(=O)Nc1cccc(-n2c(=O)n(C3CC3)c(=O)c3c(Nc4ccc(I)cc4F)n(C)c(=O)c(C)c32)c1 [Trametinib] (partner 0.02 µM)
Procedure, shortened: as §1

[5] = compound: CCN1C(=O)C2=CC(=C(N=C2N(C1=O)C3CC3)N)C(=O)N + Cc1cc(Nc2cc(N3CCN(C)CC3)nc(Sc3ccc(NC(=O)C4CC4)cc3)n2)n[nH]1 [Tozasertib] (partner 0.1 µM)
Procedure, shortened: as §1

Cell Line | relative viability ([1]; first compound 0.253 µM) | relative viability ([1]; first compound 0.8 µM) | relative viability ([1]; first compound 2.53 µM) | relative viability ([1]; first compound 8 µM) | relative viability ([2]; first compound 0.253 µM) | relative viability ([2]; first compound 0.8 µM) | relative viability ([2]; first compound 2.53 µM) | relative viability ([2]; first compound 8 µM) | relative viability ([3]; first compound 0.253 µM) | relative viability ([3]; first compound 0.8 µM) | relative viability ([3]; first compound 2.53 µM) | relative viability ([3]; first compound 8 µM) | relative viability ([4]; first compound 0.253 µM) | relative viability ([4]; first compound 0.8 µM) | relative viability ([4]; first compound 2.53 µM) | relative viability ([4]; first compound 8 µM) | relative viability ([5]; first compound 0.253 µM) | relative viability ([5]; first compound 0.8 µM) | relative viability ([5]; first compound 2.53 µM) | relative viability ([5]; first compound 8 µM)
NCI-H1975 | 0.758 | 0.622 | 0.83 | 0.7 | 0.564 | 0.623 | 0.602 | 0.489 | 0.381 | 0.341 | 0.356 | 0.268 | 0.343 | 0.335 | 0.335 | 0.336 | 0.738 | 0.737 | 0.608 | 0.331
CAL-12T | 0.619 | 0.479 | 0.664 | 0.567 | 0.452 | 0.448 | 0.475 | 0.418 | 0.466 | 0.377 | 0.452 | 0.462 | 0.42 | 0.354 | 0.386 | 0.328 | 0.271 | 0.269 | 0.282 | 0.223
NCI-H2126 | 1.02 | 0.967 | 0.941 | 0.958 | 0.332 | 0.345 | 0.349 | 0.364 | 0.632 | 0.55 | 0.596 | 0.52 | 0.574 | 0.583 | 0.56 | 0.554 | 0.86 | 0.798 | 0.801 | 0.828
